Measurements as given in article PMC9281089 (Journal of Translational Medicine, 2022).
“Also recorded” adds a separate entry of the source. Counter-ions that a name gives are not always drawn.

Legend:
[1] = system: SARS-CoV-2_S (D614G)-pseudotyped lentivirus entry into ACE2-overexpressing 293T cells; type: cell-based
[2] = system: SARS-CoV-2_S (D614G)-pseudotyped lentivirus entry into ACE2-overexpressing Capan2 cells; type: cell-based

`O=C1c2ccccc2C(=O)c2ccccc21` [TS-1276, anthraquinone] was tested, and the “inhibiting effect on entry of the pseudovirus (EGFP/mCherry signal ratio)” value (“inhibiting effect … (EGFP/mCherry signal ratio)” below) [1] was “significant inhibiting effects” and the “inhibiting effect … (EGFP/mCherry signal ratio)” value [2] was “did not present any significant inhibiting effects”.
In the case of `N=C(N)c1ccc2cc(OC(=O)c3ccc(N=C(N)N)cc3)ccc2c1` [Nafamostat mesylate, reference compound], the “inhibiting effect … (EGFP/mCherry signal ratio)” value [1] was “significant inhibiting effects” and the “inhibiting effect … (EGFP/mCherry signal ratio)” value [2] was “exhibited an inhibiting effect; also recorded: block the pseudoviruses from entering”.
For `COc1ccc2c3ccnc4ccc(=O)n(c2c1)c43` [TS-984, 9-Methoxycanthin-6-one], the “inhibiting effect … (EGFP/mCherry signal ratio)” value [1] was “significant inhibiting effects; also recorded: greatly reduce the EGFP/mCherry signal ratio” and the “inhibiting effect … (EGFP/mCherry signal ratio)” value [2] was “strongest and was dose-dependent; also recorded: greatly reduce the EGFP/mCherry signal ratio; also recorded: effectively block the entry of pseudovirus into Capan2 cells with ACE2 overexpression in a dose-dependent manner”.
`O=C(OC[C@H]1O[C@@H](OC(=O)c2cc(O)c(O)c(OC(=O)c3cc(O)c(O)c(O)c3)c2)[C@H](OC(=O)c2cc(O)c(O)c(OC(=O)c3cc(O)c(O)c(O)c3)c2)[C@@H](OC(=O)c2cc(O)c(O)c(OC(=O)c3cc(O)c(O)c(O)c3)c2)[C@@H]1OC(=O)c1cc(O)c(O)c(OC(=O)c2cc(O)c(O)c(O)c2)c1)c1cc(O)c(O)c(OC(=O)c2cc(O)c(O)c(O)c2)c1` [tannic acid, reference compound] was tested, and the “inhibiting effect on entry of the pseudovirus” value [2] was “only a mild inhibiting effect; also recorded: did not observe any significant inhibiting effect”.
